{"source": "ChEMBL document CHEMBL4619822", "about": "“Novel Cyclic Tetramer Compounds as PCSK9 Inhibitors for Treating Metabolic Disorders” (ACS Med Chem Lett, 2020)", "data": [{"biological_target": "Proprotein convertase subtilisin/kexin type 9 (Homo sapiens) (UniProt Q8NBP7)", "sequence (Q8NBP7 31-152 limits assumed)": "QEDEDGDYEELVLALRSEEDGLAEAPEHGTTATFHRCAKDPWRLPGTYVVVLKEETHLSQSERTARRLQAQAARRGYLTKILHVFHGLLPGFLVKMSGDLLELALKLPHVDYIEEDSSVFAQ", "sequence (Q8NBP7 153-692 limits assumed)": "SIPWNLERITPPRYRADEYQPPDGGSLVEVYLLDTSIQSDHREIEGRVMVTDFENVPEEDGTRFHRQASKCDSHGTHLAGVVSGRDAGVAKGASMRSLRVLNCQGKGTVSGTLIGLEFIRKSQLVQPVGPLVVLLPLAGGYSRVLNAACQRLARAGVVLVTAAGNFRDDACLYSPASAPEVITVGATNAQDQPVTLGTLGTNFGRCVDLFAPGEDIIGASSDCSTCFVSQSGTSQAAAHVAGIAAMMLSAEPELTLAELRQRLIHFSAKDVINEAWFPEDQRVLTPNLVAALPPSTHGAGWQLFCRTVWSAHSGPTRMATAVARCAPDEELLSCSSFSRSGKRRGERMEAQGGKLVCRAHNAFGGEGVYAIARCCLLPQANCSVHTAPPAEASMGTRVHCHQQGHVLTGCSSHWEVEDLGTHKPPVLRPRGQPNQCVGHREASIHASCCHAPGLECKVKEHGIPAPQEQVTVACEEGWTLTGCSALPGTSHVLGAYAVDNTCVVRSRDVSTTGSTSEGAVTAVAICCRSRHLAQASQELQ", "assay": "Inhibition of human PCSK9 by Alexa Fluor 647 staining based TR-FRET assay relative to control", "units": {"Imax": "%"}, "values": [{"smiles": "C[C@H]1C(=O)N[C@@H](CO)C(=O)N[C@@]2(Cc3ccc(Cl)cc3)CCCN(C2)C(=O)[C@H](Cc2ccccc2)CC(=O)N1Cc1ccc(Cl)c(F)c1Oc1ccc(-c2cnc(CN(C)C)n2C)cc1", "Imax": 101}, {"smiles": "CNCc1ncc(-c2ccc(Oc3cc(Cl)ccc3CN3C(=O)C[C@@H](Cc4ccccc4)C(=O)N4CCC[C@@](Cc5ccc(Cl)cc5)(C4)NC(=O)[C@H](CO)NC(=O)[C@@H]3C)cc2)n1C", "Imax": 105}, {"smiles": "COC[C@@H]1NC(=O)[C@H](C)N(Cc2ccc(Cl)cc2Oc2ccc(-c3cnc(CN(C)C)n3C)nc2)C(=O)C[C@@H](CC(F)(F)F)C(=O)N2CCC[C@@](Cc3ccc(Cl)cc3)(C2)N(C)C1=O", "Imax": 113}, {"smiles": "CNCc1ncc(-c2ccc(Oc3cc(Cl)cc(F)c3CN3C(=O)C[C@@H](CC(F)(F)F)C(=O)N4CCC[C@@](Cc5ccc(Cl)cc5)(C4)N(C)C(=O)[C@H](COC)NC(=O)[C@@H]3C)cc2)n1C", "Imax": 105}, {"smiles": "C[C@H]1C(=O)N[C@@H](CO)C(=O)N[C@@]2(Cc3ccc(Cl)cc3)CCCN(C2)C(=O)[C@H](CC2CC2)CC(=O)N1Cc1c(F)cc(Cl)cc1Oc1ccc(-c2cnc(CNC3CCC3)n2C)cc1", "Imax": 100}, {"smiles": "COC[C@@H]1NC(=O)[C@H](C)N(Cc2ncc(Cl)cc2Oc2ccc(-c3cnc(CN(C)C)n3C)cc2)C(=O)C[C@@H](Cc2ccccc2)C(=O)N2CCC[C@@](Cc3ccc(Cl)cc3)(C2)NC1=O", "Imax": 103}]}]}
